Values after ≈ are worked out from the molar mass of the structure shown. Active and inactive are the calls of the source. No cut-off for these calls is given here.
How the values were obtained:
Type in all cases: functional
[1] = tested on: Aspergillus fumigatus; experiment: Antifungal activity against Aspergillus fumigatus at 100 ug/ml by disc diffusion method; settings: read-out: IZ
[2] = tested on: SN12C; experiment: Growth inhibition of human SN12C cells at 10^-5 M incubated for 48 hrs by sulforhodamine B assay relative to control
[3] = tested on: NCI-H23; experiment: Growth inhibition of human NCI-H23 cells at 10^-5 M incubated for 48 hrs by sulforhodamine B assay relative to control
[4] = tested on: Hs-578T; experiment: Growth inhibition of human Hs 578T cells at 10^-5 M incubated for 48 hrs by sulforhodamine B assay relative to control
[5] = tested on: SNB-19; experiment: Growth inhibition of human SNB19 cells at 10^-5 M incubated for 48 hrs by sulforhodamine B assay relative to control
[6] = tested on: SK-MEL-5; experiment: Growth inhibition of human SK-MEL-5 cells at 10^-5 M incubated for 48 hrs by sulforhodamine B assay relative to control
[7] = tested on: T47D; experiment: Growth inhibition of human T47D cells at 10^-5 M incubated for 48 hrs by sulforhodamine B assay relative to control
[8] = tested on: OVCAR-3; experiment: Growth inhibition of human OVCAR3 cells at 10^-5 M incubated for 48 hrs by sulforhodamine B assay relative to control
[9] = tested on: K562; experiment: Growth inhibition of human K562 cells at 10^-5 M incubated for 48 hrs by sulforhodamine B assay relative to control
[10] = tested on: HL-60(TB); experiment: Growth inhibition of human HL-60(TB) cells at 10^-5 M incubated for 48 hrs by sulforhodamine B assay relative to control
[11] = tested on: SK-MEL-2; experiment: Growth inhibition of human SK-MEL-2 cells at 10^-5 M incubated for 48 hrs by sulforhodamine B assay relative to control
[12] = tested on: NCI-H460; experiment: Growth inhibition of human NCI-H460 cells at 10^-5 M incubated for 48 hrs by sulforhodamine B assay relative to control
[13] = tested on: KM12; experiment: Growth inhibition of human KM12 cells at 10^-5 M incubated for 48 hrs by sulforhodamine B assay relative to control
[14] = tested on: SF-295; experiment: Growth inhibition of human SF295 cells at 10^-5 M incubated for 48 hrs by sulforhodamine B assay relative to control
[15] = tested on: SK-MEL-28; experiment: Growth inhibition of human SK-MEL-28 cells at 10^-5 M incubated for 48 hrs by sulforhodamine B assay relative to control
[16] = tested on: Aspergillus fumigatus; experiment: Antifungal activity against Aspergillus fumigatus after 24 hrs by serial dilution method
[17] = tested on: HCT-15; experiment: Growth inhibition of human HCT15 cells at 10^-5 M incubated for 48 hrs by sulforhodamine B assay relative to control
[18] = tested on: UACC-257; experiment: Growth inhibition of human UACC257 cells at 10^-5 M incubated for 48 hrs by sulforhodamine B assay relative to control
[19] = tested on: LOX IMVI; experiment: Growth inhibition of human LOXIMVI cells at 10^-5 M incubated for 48 hrs by sulforhodamine B assay relative to control
[20] = tested on: EKVX; experiment: Growth inhibition of human EKVX cells at 10^-5 M incubated for 48 hrs by sulforhodamine B assay relative to control
[21] = tested on: SW-620; experiment: Growth inhibition of human SW620 cells at 10^-5 M incubated for 48 hrs by sulforhodamine B assay relative to control
[22] = tested on: SK-OV-3; experiment: Growth inhibition of human SKOV3 cells at 10^-5 M incubated for 48 hrs by sulforhodamine B assay relative to control
[23] = tested on: MDA-MB-468; experiment: Growth inhibition of human MDA-MB-468 cells at 10^-5 M incubated for 48 hrs by sulforhodamine B assay relative to control
[24] = tested on: OVCAR-4; experiment: Growth inhibition of human OVCAR4 cells at 10^-5 M incubated for 48 hrs by sulforhodamine B assay relative to control
[25] = tested on: BT-549; experiment: Growth inhibition of human BT549 cells at 10^-5 M incubated for 48 hrs by sulforhodamine B assay relative to control
[26] = tested on: SF-539; experiment: Growth inhibition of human SF539 cells at 10^-5 M incubated for 48 hrs by sulforhodamine B assay relative to control
[27] = tested on: SR; experiment: Growth inhibition of human SR cells at 10^-5 M incubated for 48 hrs by sulforhodamine B assay relative to control
[28] = tested on: NCI/ADR-RES; experiment: Growth inhibition of human NCI-ADR-RES cells at 10^-5 M incubated for 48 hrs by sulforhodamine B assay relative to control
[29] = tested on: TK-10; experiment: Growth inhibition of human TK10 cells at 10^-5 M incubated for 48 hrs by sulforhodamine B assay relative to control
[30] = tested on: SNB-75; experiment: Growth inhibition of human SNB75 cells at 10^-5 M incubated for 48 hrs by sulforhodamine B assay relative to control
[31] = tested on: MDA-MB-231; experiment: Growth inhibition of human MDA-MB-231/ATCC cells at 10^-5 M incubated for 48 hrs by sulforhodamine B assay relative to control
[32] = tested on: OVCAR-5; experiment: Growth inhibition of human OVCAR5 cells at 10^-5 M incubated for 48 hrs by sulforhodamine B assay relative to control
[33] = tested on: M14; experiment: Growth inhibition of human M14 cells at 10^-5 M incubated for 48 hrs by sulforhodamine B assay relative to control
[34] = tested on: COLO 205; experiment: Growth inhibition of human COLO205 cells at 10^-5 M incubated for 48 hrs by sulforhodamine B assay relative to control
[35] = tested on: UACC-62; experiment: Growth inhibition of human UACC62 cells at 10^-5 M incubated for 48 hrs by sulforhodamine B assay relative to control
[36] = tested on: Malme-3M; experiment: Growth inhibition of human MALME-3M cells at 10^-5 M incubated for 48 hrs by sulforhodamine B assay relative to control
[37] = tested on: MDA-MB-435; experiment: Growth inhibition of human MDA-MB-435 cells at 10^-5 M incubated for 48 hrs by sulforhodamine B assay relative to control
[38] = tested on: Candida albicans; experiment: Antifungal activity against Candida albicans at 100 ug/ml by disc diffusion method; settings: read-out: IZ
[39] = tested on: ACHN; experiment: Growth inhibition of human ACHN cells at 10^-5 M incubated for 48 hrs by sulforhodamine B assay relative to control
[40] = tested on: 786-0; experiment: Growth inhibition of human 786-0 cells at 10^-5 M incubated for 48 hrs by sulforhodamine B assay relative to control
[41] = tested on: OVCAR-8; experiment: Growth inhibition of human OVCAR8 cells at 10^-5 M incubated for 48 hrs by sulforhodamine B assay relative to control
[42] = tested on: HCC 2998; experiment: Growth inhibition of human HCC2998 cells at 10^-5 M incubated for 48 hrs by sulforhodamine B assay relative to control
[43] = tested on: UO-31; experiment: Growth inhibition of human UO31 cells at 10^-5 M incubated for 48 hrs by sulforhodamine B assay relative to control
[44] = tested on: Candida albicans; experiment: Antifungal activity against Candida albicans after 24 hrs by serial dilution method
[45] = tested on: MCF7; experiment: Growth inhibition of human MCF7 cells at 10^-5 M incubated for 48 hrs by sulforhodamine B assay relative to control

Clc1nc2ccc(Br)cc2cc1Cn1nnc(Cc2ccccc2)n1
zone of inhibition at 100 µg/mL [1]: 13 mm
growth inhibition (GI) [2]: Active
growth inhibition (GI) [3]: Active
growth inhibition (GI) [4]: Active
growth inhibition (GI) [5]: Active
growth inhibition (GI) [6]: Active
growth inhibition (GI) [7]: Active
growth inhibition (GI) [8]: Active
growth inhibition (GI) [9]: Active
growth inhibition (GI) [10]: Active
growth inhibition (GI) [11]: Active
growth inhibition (GI) [12]: Active
growth inhibition (GI) [13]: Active
growth inhibition (GI) [14]: Active
growth inhibition (GI) [15]: Active
MIC [16]: 10 µg/mL (≈ 24.1 µM)
growth inhibition (GI) [17]: Active
growth inhibition (GI) [18]: Active
growth inhibition (GI) [19]: Active
growth inhibition (GI) [20]: Active
growth inhibition (GI) [21]: Active
growth inhibition (GI) [22]: Active
growth inhibition (GI) [23]: Active
growth inhibition (GI) [24]: Active
growth inhibition (GI) [25]: Active
growth inhibition (GI) [26]: Active
growth inhibition (GI) [27]: Active
growth inhibition (GI) [28]: Active
growth inhibition (GI) [29]: Active
growth inhibition (GI) [30]: Active
growth inhibition (GI) [31]: Active
growth inhibition (GI) [32]: Active
growth inhibition (GI) [33]: Active
growth inhibition (GI) [34]: Active
growth inhibition (GI) [35]: Active
growth inhibition (GI) [36]: Active
growth inhibition (GI) [37]: Active
zone of inhibition at 100 µg/mL [38]: 10 mm
growth inhibition (GI) [39]: Active
growth inhibition (GI) [40]: Active
growth inhibition (GI) [41]: Active
growth inhibition (GI) [42]: Active
growth inhibition (GI) [43]: Active
MIC [44]: 10 µg/mL (≈ 24.1 µM)
growth inhibition (GI) [45]: Active

Cc1ccc2nc(Cl)c(Cn3nnnc3Cc3ccccc3)cc2c1
zone of inhibition at 100 µg/mL [1]: 10 mm
growth inhibition (GI) [2]: Active
growth inhibition (GI) [3]: Active
growth inhibition (GI) [4]: Active
growth inhibition (GI) [5]: Active
growth inhibition (GI) [6]: Active
growth inhibition (GI) [7]: Active
growth inhibition (GI) [8]: Active
growth inhibition (GI) [9]: Active
growth inhibition (GI) [10]: Active
growth inhibition (GI) [11]: Active
growth inhibition (GI) [12]: Active
growth inhibition (GI) [13]: Active
growth inhibition (GI) [14]: Active
growth inhibition (GI) [15]: Active
MIC [16]: 25 µg/mL (≈ 71.5 µM)
growth inhibition (GI) [17]: Active
growth inhibition (GI) [18]: Active
growth inhibition (GI) [19]: Active
growth inhibition (GI) [20]: Active
growth inhibition (GI) [21]: Active
growth inhibition (GI) [22]: Active
growth inhibition (GI) [23]: Active
growth inhibition (GI) [24]: Active
growth inhibition (GI) [25]: Active
growth inhibition (GI) [26]: Active
growth inhibition (GI) [27]: Active
growth inhibition (GI) [28]: Active
growth inhibition (GI) [29]: Active
growth inhibition (GI) [30]: Active
growth inhibition (GI) [31]: Active
growth inhibition (GI) [32]: Active
growth inhibition (GI) [33]: Active
growth inhibition (GI) [34]: Active
growth inhibition (GI) [35]: Active
growth inhibition (GI) [36]: Active
growth inhibition (GI) [37]: Active
zone of inhibition at 100 µg/mL [38]: 10 mm
growth inhibition (GI) [39]: Active
growth inhibition (GI) [40]: Active
growth inhibition (GI) [41]: Active
growth inhibition (GI) [42]: Active
growth inhibition (GI) [43]: Active
MIC [44]: 25 µg/mL (≈ 71.5 µM)
growth inhibition (GI) [45]: Active

Source: ChEMBL document CHEMBL4004849, “Tetrazolylmethyl quinolines: Design, docking studies, synthesis, anticancer and antifungal analyses” (2017)
